Measured values: patent US20260200939A1, “MOLECULAR GLUE DEGRADER COMPOUNDS AND USES THEREOF” (Novartis AG, priority 2022, published 2026)

Experiments:
[1] = biological target: T1, BRD4 long (Homo sapiens, UniProt O60885); assay: BRD4 (long) degradation assay, Western blotting; assay type: cell-based
T1 construct: endogenous in cells; host or cells: HEK293T
Procedure: (§1) C33A cells were purchased from American Type Culture Collection (ATCC) and were cultured in Dulbecco's Modified Eagle Medium (DMEM) containing 10% (v/v) fetal bovine serum (FBS) and maintained at 37° C. with 5% CO2. 22RV1 cells were purchased from the ATCC and were cultured in RPMI-1640 Medium containing 10% (v/v) FBS and maintained at 37° C. with 5% CO2. HEK293T cells were obtained from the UC Berkeley Cell Culture Facility and were cultured in DMEM containing 10% (v/v) FBS and maintained at 37° C. with 5% CO2. K562 cells were obtained from the UC Berkeley Cell Culture Facility and were cultured in Iscove's Modified Dulbecco's Medium (IMDM) containing 10% (v/v) FBS and maintained at 37° C. with 5% CO2. MV-4-11 cells were obtained from the ATCC and were cultured in IMDM containing 10% (v/v) FBS and maintained at 37° C. with 5% CO2. A549 cells were obtained from the ATCC and were cultured in F-12K Medium containing 10% (v/v) FBS and maintained at 37° C. with 5% CO2. Mino cells were obtained from the ATCC and were cultured in RPMI-1640 Medium containing 10% (v/v) FBS and maintained at 37° C. with 5% CO2. LNCaP cells were obtained from the ATCC and were cultured in RPMI-1640 Medium containing 10% (v/v) FBS and maintained at 37° C. with 5% CO2. Unless otherwise specified, all cell culture materials were purchased from Gibco. It is not known whether HEK293T cells are from male or female origin.
(§2) Cells were washed twice with cold PBS, scraped, and pelleted by centrifugation (700 g, 5 min, 4° C.). Pellets were resuspended in PBS, sonicated, clarified by centrifugation (12,000 g, 10 min, 4° C.), and lysate was transferred to new low-adhesion microcentrifuge tubes. Proteome concentrations were determined using BCA assay and lysate was diluted to appropriate working concentrations.
(§3) Proteins were resolved by SDS/PAGE and transferred to nitrocellulose membranes using the Trans-Blot Turbo transfer system (Bio-Rad). Membranes were blocked with 5% BSA in Tris-buffered saline containing Tween 20 (TBS-T) solution for 30 min at RT, washed in TBS-T, and probed with primary antibody diluted in recommended diluent per manufacturer overnight at 4° C. After 3 washes with TBS-T, the membranes were incubated in the dark with IR680- or IR800-conjugated secondary antibodies at 1:10,000 dilution in 5% BSA in TBS-T at RT for 1 h. After 3 additional washes with TBST, blots were visualized using an Odyssey Li-Cor fluorescent scanner. The membranes were stripped using ReBlot Plus Strong Antibody Stripping Solution (EMD Millipore) when additional primary antibody incubations were performed. Antibodies used in this study were CDK4 (Abcam ab108357), Vinculin (Abcam ab129002), GAPDH (Cell Signaling Technology 14C10), RNF126 (Santa Cruz Biotechnology sc-376005), BRD4 (Abcam ab128874), Beta Actin (Cell Signaling Technology 13E5), PDE5 (Abcam ab259945), AR-V7 (Abcam ab273500), c-Abl (Santa Cruz Biotechnology sc-23), SMARCA2 (Abcam ab240648), LRRK2 (Abcam ab133474), BTK (Cell Signaling Technology D3H5), Androgen Receptor (Abcam ab133273).

[2] = biological target: T2, BRD4 short (Homo sapiens, UniProt O60885); assay: BRD4 (short) degradation assay, Western blotting; assay type: cell-based
T2 construct: endogenous in cells; host or cells: HEK293T
Procedure: as §1, §2, §3

[3] = first value of cell (long/short)
[4] = second value of cell (long/short)
[5] = first value of cell, range with lower bound in nM and upper bound in μM
[6] = second value of cell, range with lower bound in nM and upper bound in μM

Compound	DC50 [1, 3]	DC50 [2, 4]	DC50 [1, 5]	DC50 [2, 6]
COc1ccc(C(=O)/C=C/C(=O)N2CC3CC(C2)CN(C(=O)C[C@@H]2N=C(c4ccc(Cl)cc4)c4c(sc(C)c4C)-n4c(C)nnc42)C3)cc1 [Compound 229, (E)-1-(7-(2-((S)-4-(4-chlorophenyl)-2,3,9-trimethyl-6H-thieno[3,2-f][1,2,4]triazolo[4,3-a][1,4]diazepin-6-yl)acetyl)-3,7-diazabicyclo[3.3.1]nonan-3-yl)-4-(4-methoxyphenyl)but-2-ene-1,4-dione]			100 to 1000 nM	100 to 1000 nM
COc1ccc(C(=O)/C=C/C(=O)N2CC3CN(C(=O)C[C@@H]4N=C(c5ccc(Cl)cc5)c5c(sc(C)c5C)-n5c(C)nnc54)CC3C2)cc1 (stereo partly drawn) [Compound 230, (E)-1-(5-(2-((S)-4-(4-chlorophenyl)-2,3,9-trimethyl-6H-thieno[3,2-f][1,2,4]triazolo[4,3-a][1,4]diazepin-6-yl)acetyl)hexahydropyrrolo[3,4-c]pyrrol-2(1H)-yl)-4-(4-methoxyphenyl)but-2-ene-1,4-dione]	10 to 100 nM	10 to 100 nM		
COc1ccc(C(=O)/C=C\C(=O)N2CCN(C(=O)C[C@@H]3N=C(c4ccc(Cl)cc4)c4c(sc(C)c4C)-n4c(C)nnc43)CC2)cc1 [Compound 232, (S,Z)-1-(4-(2-(4-(4-chlorophenyl)-2,3,9-trimethyl-6H-thieno[3,2-f][1,2,4]triazolo[4,3-a][1,4]diazepin-6-yl)acetyl)piperazin-1-yl)-4-(4-methoxyphenyl)but-2-ene-1,4-dione]	10 to 100 nM	10 to 100 nM		
COc1ccc(C(=O)/C=C/C(=O)N[C@H]2C[C@H](NC(=O)CC3N=C(c4ccc(Cl)cc4)c4c(sc(C)c4C)-n4c(C)nnc43)C2)c(F)c1 (stereo partly drawn) [Compound 234, (E)-N-((1S,3r)-3-(2-((S)-4-(4-chlorophenyl)-2,3,9-trimethyl-6H-thieno[3,2-f][1,2,4]triazolo[4,3-a][1,4]diazepin-6-yl)acetamido)cyclobutyl)-4-(2-fluoro-4-methoxyphenyl)-4-oxobut-2-enamide]	50 nM	150 nM		
COc1ccc(C(=O)/C=C/C(=O)N[C@H]2C[C@H](NC(=O)C[C@@H]3N=C(c4ccc(Cl)cc4)c4c(sc(C)c4C)-n4c(C)nnc43)C2)cc1F [Compound 236, (E)-N-((1S,3r)-3-(2-((S)-4-(4-chlorophenyl)-2,3,9-trimethyl-6H-thieno[3,2-f][1,2,4]triazolo[4,3-a][1,4]diazepin-6-yl)acetamido)cyclobutyl)-4-(3-fluoro-4-methoxyphenyl)-4-oxobut-2-enamide]	90 nM	190 nM		
Cc1sc2c(c1C)C(c1ccc(Cl)cc1)=N[C@@H](CC(=O)N1CCN(C(=O)/C=C/C(=O)c3cccc(C#N)c3)CC1)c1nnc(C)n1-2 [Compound 239, (S,E)-3-(4-(4-(2-(4-(4-chlorophenyl)-2,3,9-trimethyl-6H-thieno[3,2-f][1,2,4]triazolo[4,3-a][1,4]diazepin-6-yl)acetyl)piperazin-1-yl)-4-oxobut-2-enoyl)benzonitrile]			100 to 1000 nM	100 to 1000 nM
COc1ccc(C(=O)/C=C/C(=O)N2CCN(C(=O)C[C@@H]3N=C(c4ccc(Cl)cc4)c4c(sc(C)c4C)-n4c(C)nnc43)CC2)c(Cl)c1 [Compound 240, (S,E)-1-(2-chloro-4-methoxyphenyl)-4-(4-(2-(4-(4-chlorophenyl)-2,3,9-trimethyl-6H-thieno[3,2-f][1,2,4]triazolo[4,3-a][1,4]diazepin-6-yl)acetyl)piperazin-1-yl)but-2-ene-1,4-dione]	< 10 nM	10 to 100 nM		
COc1ccc(C(=O)/C=C/C(=O)N[C@H]2C[C@H](NC(=O)C[C@@H]3N=C(c4ccc(Cl)cc4)c4c(sc(C)c4C)-n4c(C)nnc43)C2)c(Cl)c1 [Compound 241, (E)-4-(2-chloro-4-methoxyphenyl)-N-((1S,3r)-3-(2-((S)-4-(4-chlorophenyl)-2,3,9-trimethyl-6H-thieno[3,2-f][1,2,4]triazolo[4,3-a][1,4]diazepin-6-yl)acetamido)cyclobutyl)-4-oxobut-2-enamide]	90 nM	180 nM		

Other lines, results leading:

DC50 [1, 3]	DC50 [2, 4]	DC50 [1, 5]	DC50 [2, 6]	Compound
10 to 100 nM	10 to 100 nM			COc1ccc(C(=O)/C=C/C(=O)N2CC3(CCN(C(=O)C[C@@H]4N=C(c5ccc(Cl)cc5)c5c(sc(C)c5C)-n5c(C)nnc54)CC3)C2)cc1 [Compound 227, (S,E)-1-(7-(2-(4-(4-chlorophenyl)-2,3,9-trimethyl-6H-thieno[3,2-f][1,2,4]triazolo[4,3-a][1,4]diazepin-6-yl)acetyl)-2,7-diazaspiro[3.5]nonan-2-yl)-4-(4-methoxyphenyl)but-2-ene-1,4-dione]
10 to 100 nM	10 to 100 nM			COc1ccc(C(=O)/C=C/C(=O)N2CC3CCC(C2)N(C(=O)C[C@@H]2N=C(c4ccc(Cl)cc4)c4c(sc(C)c4C)-n4c(C)nnc42)C3)cc1 (stereo partly drawn) [Compound 228, (E)-1-(6-(2-((S)-4-(4-chlorophenyl)-2,3,9-trimethyl-6H-thieno[3,2-f][1,2,4]triazolo[4,3-a][1,4]diazepin-6-yl)acetyl)-3,6-diazabicyclo[3.2.2]nonan-3-yl)-4-(4-methoxyphenyl)but-2-ene-1,4-dione]
10 to 100 nM	1 to 10 nM			COc1ccc(C(=O)/C=C/C(=O)N2CCC3(CC2)CN(C(=O)C[C@@H]2N=C(c4ccc(Cl)cc4)c4c(sc(C)c4C)-n4c(C)nnc42)CCO3)cc1 [Compound 231, (S,E)-1-(4-(2-(4-(4-chlorophenyl)-2,3,9-trimethyl-6H-thieno[3,2-f][1,2,4]triazolo[4,3-a][1,4]diazepin-6-yl)acetyl)-1-oxa-4,9-diazaspiro[5.5]undecan-9-yl)-4-(4-methoxyphenyl)but-2-ene-1,4-dione]
< 100 nM	< 100 nM			COc1ccc(C(=O)/C=C/C(=O)N2CCN(C(=O)C[C@@H]3N=C(c4ccc(Cl)cc4)c4c(sc(C)c4C)-n4c(C)nnc43)CC2)c(F)c1 [Compound 233, (S,E)-1-(4-(2-(4-(4-chlorophenyl)-2,3,9-trimethyl-6H-thieno[3,2-f][1,2,4]triazolo[4,3-a][1,4]diazepin-6-yl)acetyl)piperazin-1-yl)-4-(2-fluoro-4-methoxyphenyl)but-2-ene-1,4-dione]
< 100 nM	< 100 nM			COc1cc(F)ccc1C(=O)/C=C/C(=O)N1CCN(C(=O)C[C@@H]2N=C(c3ccc(Cl)cc3)c3c(sc(C)c3C)-n3c(C)nnc32)CC1 [Compound 235, (S,E)-1-(4-(2-(4-(4-chlorophenyl)-2,3,9-trimethyl-6H-thieno[3,2-f][1,2,4]triazolo[4,3-a][1,4]diazepin-6-yl)acetyl)piperazin-1-yl)-4-(4-fluoro-2-methoxyphenyl)but-2-ene-1,4-dione]
< 100 nM	< 100 nM			COc1ccc(C(=O)/C=C/C(=O)N2CCN(C(=O)C[C@@H]3N=C(c4ccc(Cl)cc4)c4c(sc(C)c4C)-n4c(C)nnc43)CC2)cc1F [Compound 237, (S,E)-1-(4-(2-(4-(4-chlorophenyl)-2,3,9-trimethyl-6H-thieno[3,2-f][1,2,4]triazolo[4,3-a][1,4]diazepin-6-yl)acetyl)piperazin-1-yl)-4-(3-fluoro-4-methoxyphenyl)but-2-ene-1,4-dione]
	< 100 nM	100 to 1000 nM		Cc1sc2c(c1C)C(c1ccc(Cl)cc1)=N[C@@H](CC(=O)N1CCN(C(=O)/C=C/C(=O)c3ccc(C#N)cc3)CC1)c1nnc(C)n1-2 [Compound 238, (S,E)-4-(4-(4-(2-(4-(4-chlorophenyl)-2,3,9-trimethyl-6H-thieno[3,2-f][1,2,4]triazolo[4,3-a][1,4]diazepin-6-yl)acetyl)piperazin-1-yl)-4-oxobut-2-enoyl)benzonitrile]
